{"source": "patent US20260028365A1", "about": "(BIOGEN MA INC., priority 2022, published 2026)"}
{"target": "Tyk2 (Homo sapiens (Human), UniProt P29597)", "sequence (P29597 whole entry)": "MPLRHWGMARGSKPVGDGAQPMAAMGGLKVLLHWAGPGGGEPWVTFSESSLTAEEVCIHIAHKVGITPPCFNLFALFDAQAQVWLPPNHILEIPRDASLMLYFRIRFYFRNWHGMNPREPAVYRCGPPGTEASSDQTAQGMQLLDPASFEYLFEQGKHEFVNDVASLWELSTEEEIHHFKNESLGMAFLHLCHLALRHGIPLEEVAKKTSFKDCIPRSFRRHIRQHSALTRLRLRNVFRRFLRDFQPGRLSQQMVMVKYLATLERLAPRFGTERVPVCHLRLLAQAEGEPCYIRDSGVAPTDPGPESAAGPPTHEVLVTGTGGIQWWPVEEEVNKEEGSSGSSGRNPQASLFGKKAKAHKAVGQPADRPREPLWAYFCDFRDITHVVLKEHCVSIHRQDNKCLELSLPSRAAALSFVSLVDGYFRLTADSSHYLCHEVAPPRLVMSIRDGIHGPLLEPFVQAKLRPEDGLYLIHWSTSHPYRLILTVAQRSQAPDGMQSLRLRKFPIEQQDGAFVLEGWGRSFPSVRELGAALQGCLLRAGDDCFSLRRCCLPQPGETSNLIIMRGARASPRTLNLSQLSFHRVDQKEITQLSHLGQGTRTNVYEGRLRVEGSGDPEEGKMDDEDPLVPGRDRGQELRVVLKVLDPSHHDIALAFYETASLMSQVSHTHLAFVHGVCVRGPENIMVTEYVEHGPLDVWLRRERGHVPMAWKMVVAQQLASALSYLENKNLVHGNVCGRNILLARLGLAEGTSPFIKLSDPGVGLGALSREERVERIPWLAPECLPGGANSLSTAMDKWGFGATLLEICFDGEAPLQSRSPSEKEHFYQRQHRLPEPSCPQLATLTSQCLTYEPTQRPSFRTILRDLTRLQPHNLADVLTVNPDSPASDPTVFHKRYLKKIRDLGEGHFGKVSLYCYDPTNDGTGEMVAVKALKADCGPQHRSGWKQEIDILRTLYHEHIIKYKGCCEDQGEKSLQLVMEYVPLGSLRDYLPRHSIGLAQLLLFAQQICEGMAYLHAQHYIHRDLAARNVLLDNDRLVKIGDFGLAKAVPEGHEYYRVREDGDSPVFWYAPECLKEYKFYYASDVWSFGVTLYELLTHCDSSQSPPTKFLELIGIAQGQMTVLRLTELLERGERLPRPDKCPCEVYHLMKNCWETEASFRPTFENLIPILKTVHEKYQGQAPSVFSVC", "assay": "pSTAT4 Cell Assay (MSD, NK92 cells)", "type": "cell-based", "details": "MSD", "procedure": "The inhibitory potency of compounds of the disclosure against the Tyk2 kinase activity on STAT4 was evaluated using an MSD-platform plate-based assay format. NK92 cells natively expressing STAT4 and Tyk2 were serum-starved to reduce background phosphorylation levels, then cells were treated compounds for 1 hr with a 10-point four-fold dilution series starting at 10 μM. Cells were then stimulated with 30 ng/mL […] for 15 minutes. […] The data were normalized and the percent activity versus log concentration of compound were fitted with a 4-parameter logistic model to generate to generate IC50 curves.", "units": {"IC50": "nM"}}
{"smiles": "CC(=O)Nc1cc(Nc2cc(C)nc(C(C)(F)F)n2)c(OCc2cc(C#N)ccn2)cn1", "note": "[Example 129, N-(5-((4-cyanopyridin-2-yl)methoxy)-4-((2-(1,1-difluoroethyl)-6-methylpyrimidin-4-yl)amino)pyridin-2-yl)acetamide]", "IC50": "10 to 100"}
{"smiles": "CC(=O)Nc1cc(Nc2cc(C)nc(C(C)(F)F)n2)c(OCc2ccc(C)cn2)cn1", "note": "[Example 130, N-(4-((2-(1,1-difluoroethyl)-6-methylpyrimidin-4-yl)amino)-5-((5-methylpyridin-2-yl)methoxy)pyridin-2-yl)acetamide]", "IC50": "10 to 100"}
{"smiles": "CC(=O)Nc1cc(Nc2cc(C)nc(C(C)(F)F)n2)c(OCc2ccc(C#N)cn2)cn1", "note": "[Example 131, N-(5-((5-cyanopyridin-2-yl)methoxy)-4-((2-(1,1-difluoroethyl)-6-methylpyrimidin-4-yl)amino)pyridin-2-yl)acetamide]", "IC50": "10 to 100"}
{"smiles": "COc1cccc(COc2cnc(NC(C)=O)cc2Nc2cc(C)nc(C(C)(F)F)n2)n1", "note": "[Example 132, N-(4-((2-(1,1-difluoroethyl)-6-methylpyrimidin-4-yl)amino)-5-((6-methoxypyridin-2-y1)methoxy)pyridin-2-yl)acetamide]", "IC50": "10 to 100"}
{"smiles": "CC(=O)Nc1cc(Nc2cc(C)nc(C(C)(F)F)n2)c(OCc2cc(C)ccn2)cn1", "note": "[Example 133, N-(4-((2-(1,1-difluoroethyl)-6-methylpyrimidin-4-yl)amino)-5-((4-methylpyridin-2-yl)methoxy)pyridin-2-yl)acetamide]", "IC50": "≤ 10"}
{"smiles": "CC(=O)Nc1cc(Nc2cc(C)nc(C(C)(F)F)n2)c(OCc2ncccn2)cn1", "note": "[Example 134, N-(4-((2-(1,1-difluoroethyl)-6-methylpyrimidin-4-yl)amino)-5-(pyrimidin-2-ylmethoxy)pyridin-2-yl)acetamide]", "IC50": "100 to 1000"}
{"smiles": "CC(=O)Nc1cc(Nc2cc(C)nc(C(C)(F)F)n2)c(OCC2CCCOC2)cn1", "note": "(stereo not shown) [Example 136, N-(4-((2-(1,1-difluoroethyl)-6-methylpyrimidin-4-yl)amino)-5-((tetrahydro-2H-pyran-3-yl)methoxy)pyridin-2-yl)acetamide]", "IC50": "≤ 10"}
{"smiles": "COC(C)CCOc1cnc(NC(C)=O)cc1Nc1cc(C)nc(C(C)(F)F)n1", "note": "(stereo not shown) [Example 137, N-(4-((2-(1,1-difluoroethyl)-6-methylpyrimidin-4-yl)amino)-5-(3-methoxybutoxy)pyridin-2-yl)acetamide]", "IC50": "10 to 100"}
{"smiles": "CC(=O)Nc1cc(Nc2cc(C)nc(C34COC(C3)C4)n2)c(-c2cc3n(n2)CCN(C)C3)cn1", "note": "[Example 141, N-(4-((2-(2-oxabicyclo[2.1.1]hexan-4-yl)-6-methylpyrimidin-4-yl)amino)-5-(5-methyl-4,5,6,7-tetrahydropyrazolo[1,5-a]pyrazin-2-yl)pyridin-2-yl)acetamide]", "IC50": "≤ 10"}
{"smiles": "COc1cnc(C(C)(F)F)nc1Nc1cc(NC(C)=O)ncc1C1CC1", "note": "[Example 143, N-(5-cyclopropyl-4-((2-(1,1-difluoroethyl)-5-methoxypyrimidin-4-yl)amino)pyridin-2-yl)acetamide]", "IC50": "≥ 1000"}
{"smiles": "CO[C@H]1C[C@H](Oc2cc(Nc3cc(NC(C)=O)ncc3-c3ccn(C)n3)nc(C(C)(F)F)c2)C1", "note": "[Example 148, N-(4-((6-(1,1-difluoroethyl)-4-((1r,3r)-3-methoxycyclobutoxy)pyridin-2-yl)amino)-5-(1-methyl-1H-pyrazol-3-yl)pyridin-2-yl)acetamide]", "IC50": "≤ 10"}
{"smiles": "CC(=O)Nc1cc(Nc2cccc(C(F)CF)n2)c(-c2ccn(C)n2)cn1", "note": "(stereo not shown) [Example 149, N-(4-((6-(1,2-difluoroethyl)pyridin-2-yl)amino)-5-(1-methyl-1H-pyrazol-3-yl)pyridin-2-yl)acetamide]", "IC50": "≤ 10"}
{"smiles": "CC(=O)Nc1cc(Nc2cc(C(C)C)nc(C(C)(F)F)n2)c(-c2ccn(C)n2)cn1", "note": "[Example 205, N-(4-((2-(1,1-difluoroethyl)-6-isopropylpyrimidin-4-yl)amino)-5-(1-methyl-1H-pyrazol-3-yl)pyridin-2-yl)acetamide]", "IC50": "≥ 1000"}
{"smiles": "COCCOc1cc(Nc2cc(NC(C)=O)ncc2-c2ccn(C)n2)nc(C(C)(F)F)n1", "note": "[Example 207, N-(4-((2-(1,1-difluoroethyl)-6-(2-methoxyethoxy)pyrimidin-4-yl)amino)-5-(1-methyl-1H-pyrazol-3-yl)pyridin-2-yl)acetamide]", "IC50": "≤ 10"}
{"smiles": "COc1cc(Nc2cc(NC(C)=O)ncc2-c2ccn(C)n2)nc(C(C)(F)F)c1", "note": "[Example 209, N-(4-((6-(1,1-difluoroethyl)-4-methoxypyridin-2-yl)amino)-5-(1-methyl-1H-pyrazol-3-yl)pyridin-2-yl)acetamide]", "IC50": "≤ 10"}
{"smiles": "COCCOc1cc(Nc2cc(NC(C)=O)ncc2-c2ccn(C)n2)nc(C(C)(F)F)c1", "note": "[Example 210, N-(4-((6-(1,1-difluoroethyl)-4-(2-methoxyethoxy)pyridin-2-yl)amino)-5-(1-methyl-1H-pyrazol-3-yl)pyridin-2-yl)acetamide]", "IC50": "≤ 10"}
{"smiles": "CC(=O)Nc1cc(Nc2cc(C)nc(C(C)(F)F)n2)c(-c2cc3n(n2)CCNC3=O)cn1", "note": "[Example 223, N-(4-((2-(1,1-difluoroethyl)-6-methylpyrimidin-4-yl)amino)-5-(4-oxo-4,5,6,7-tetrahydropyrazolo[1,5-a]pyrazin-2-yl)pyridin-2-yl)acetamide]", "IC50": "10 to 100"}
{"smiles": "CC(=O)Nc1cc(Nc2cc(C)nc(C(C)(F)F)n2)c(-c2cc3n(n2)C(O)CN(C)C3)cn1", "note": "(stereo not shown) [Example 224, N-(4-((2-(1,1-difluoroethyl)-6-methylpyrimidin-4-yl)amino)-5-(7-hydroxy-5-methyl-4,5,6,7-tetrahydropyrazolo[1,5-a]pyrazin-2-yl)pyridin-2-yl)acetamide]", "IC50": "≤ 10"}
{"smiles": "COCCOc1cc(-c2cnc(NC(C)=O)cc2Nc2cc(C)nc(C(C)(F)F)n2)ncn1", "note": "[Example 249, N-(4-((2-(1,1-difluoroethyl)-6-methylpyrimidin-4-yl)amino)-5-(6-(2-methoxyethoxy)pyrimidin-4-yl)pyridin-2-yl)acetamide]", "IC50": "10 to 100"}
{"smiles": "CC(=O)Nc1cc(Nc2cc(C)nc(C(C)(F)F)n2)c(-c2cc(N(C)C)cnn2)cn1", "note": "[Example 253, N-(4-((2-(1,1-difluoroethyl)-6-methylpyrimidin-4-yl)amino)-5-(5-(dimethylamino)pyridazin-3-yl)pyridin-2-yl)acetamide]", "IC50": "≥ 1000"}
{"smiles": "CC(=O)Nc1cc(Nc2ccnc(C(C)(F)F)n2)c(-c2nc3c(s2)CN(C)C3)cn1", "note": "[Example 284, N-(4-((2-(1,1-difluoroethyl)pyrimidin-4-yl)amino)-5-(5-methyl-5,6-dihydro-4H-pyrrolo[3,4-d]thiazol-2-yl)pyridin-2-yl)acetamide]", "IC50": "10 to 100"}
{"smiles": "CNC(=O)Nc1cc(Nc2cc(C)nc(C(C)(F)F)n2)c(-c2ccc(F)cn2)cn1", "note": "[Example 290, 1-(4′-((2-(1,1-difluoroethyl)-6-methylpyrimidin-4-yl)amino)-5-fluoro-[2,3′-bipyridin]-6′-yl)-3-methylurea]", "IC50": "≤ 10"}
{"smiles": "COc1ccc(Oc2cnc(NC(C)=O)cc2Nc2cc(C)nc(C(C)(F)F)n2)nn1", "note": "[Example 358, N-(4-((2-(1,1-difluoroethyl)-6-methylpyrimidin-4-yl)amino)-5-((6-methoxypyridazin-3-yl)oxy)pyridin-2-yl)acetamide]", "IC50": "≥ 1000"}
{"smiles": "COc1cnc(NC(C)=O)cc1Nc1cc(-c2cnc(C)s2)nc(C(C)(F)F)n1", "note": "[Example 387, N-(4-((2-(1,1-difluoroethyl)-6-(2-methylthiazol-5-yl)pyrimidin-4-yl)amino)-5-methoxypyridin-2-yl)acetamide]", "IC50": "≤ 10"}
{"smiles": "COc1cnc(NC(C)=O)cc1Nc1cc(-c2cc(F)c3nn(C)cc3c2)nc(C(C)(F)F)n1", "note": "[Example 396, N-(4-((2-(1,1-difluoroethyl)-6-(7-fluoro-2-methyl-2H-indazol-5-yl)pyrimidin-4-yl)amino)-5-methoxypyridin-2-yl)acetamide]", "IC50": "10 to 100"}
{"smiles": "CC(=O)Nc1cc(Nc2cc(C)nc(C(C)(F)F)n2)c(OCC2CCN(C)C2)cn1", "note": "(stereo not shown) [Example 480, N-(4-((2-(1,1-difluoroethyl)-6-methylpyrimidin-4-yl)amino)-5-((1-methylpyrrolidin-3-yl)methoxy)pyridin-2-yl)acetamide]", "IC50": "10 to 100"}
{"smiles": "CCN1CCn2nc(-c3cnc(NC(C)=O)cc3Nc3cc(C)nc(C45COC(C4)C5)n3)cc2C1", "note": "[Example 544, N-(4-((2-(2-oxabicyclo[2.1.1]hexan-4-yl)-6-methylpyrimidin-4-yl)amino)-5-(5-ethyl-4,5,6,7-tetrahydropyrazolo[1,5-a]pyrazin-2-yl)pyridin-2-yl)acetamide]", "IC50": "≤ 10"}
{"smiles": "CC(=O)Nc1cc(Nc2cc(C)nc(C(C)(F)F)n2)c(-c2ccc(C(F)F)nn2)cn1", "note": "[Example 546, N-(4-((2-(1,1-difluoroethyl)-6-methylpyrimidin-4-yl)amino)-5-(6-(difluoromethyl)pyridazin-3-yl)pyridin-2-yl)acetamide]", "IC50": "≤ 10"}
{"smiles": "CC(=O)Nc1cc(Nc2cc(C)nc(C3CCOC3)n2)c(-c2cc3n(n2)CCN(C)C3)cn1", "note": "(stereo not shown) [Example 547, N-(4-((6-methyl-2-(tetrahydrofuran-3-yl)pyrimidin-4-yl)amino)-5-(5-methyl-4,5,6,7-tetrahydropyrazolo[1,5-a]pyrazin-2-yl)pyridin-2-yl)acetamide]", "IC50": "≤ 10"}
{"smiles": "CC(=O)Nc1cc(Nc2cc(C)nc(C(C)(F)F)n2)c(-c2cc3n(n2)CC(C)N(C)C3)cn1", "note": "(stereo not shown) [Example 548, N-(4-((2-(1,1-difluoroethyl)-6-methylpyrimidin-4-yl)amino)-5-(5,6-dimethyl-4,5,6,7-tetrahydropyrazolo[1,5-a]pyrazin-2-yl)pyridin-2-yl)acetamide]", "IC50": "≤ 10"}
{"smiles": "COCc1ccc(-c2cnc(NC(C)=O)cc2Nc2cc(C)nc(C3CCCOC3)n2)nc1", "note": "(stereo not shown) [Example 571, N-(5-(methoxymethyl)-4′-((6-methyl-2-(tetrahydrO2H-pyran-3-yl)pyrimidin-4-yl)amino)-[2,3′-bipyridin]-6′-yl)acetamide]", "IC50": "10 to 100"}
